The record followed here is PMC9021598, “Structural Basis of Human Dimeric α-Amino-β-Carboxymuconate-ε-Semialdehyde Decarboxylase Inhibition With TES-1025” (Frontiers in Molecular Biosciences, 2022).

In the assay the target is T1, human α-amino-β-carboxymuconate-ε-semialdehyde decarboxylase (ACMSD) (Homo sapiens, UniProt Q8TDX5).
T1 construct: recombinant hACMSD expressed in Pichia pastoris; homodimer
The experiment in a line: X-ray co-crystal structure at […] Å; Ki from coupled spectrophotometric assay (Dixon tight-binding competitive inhibition). The class given is biochemical.

SMILES strings stand for the structures.

T1 sequence (Q8TDX5 whole entry): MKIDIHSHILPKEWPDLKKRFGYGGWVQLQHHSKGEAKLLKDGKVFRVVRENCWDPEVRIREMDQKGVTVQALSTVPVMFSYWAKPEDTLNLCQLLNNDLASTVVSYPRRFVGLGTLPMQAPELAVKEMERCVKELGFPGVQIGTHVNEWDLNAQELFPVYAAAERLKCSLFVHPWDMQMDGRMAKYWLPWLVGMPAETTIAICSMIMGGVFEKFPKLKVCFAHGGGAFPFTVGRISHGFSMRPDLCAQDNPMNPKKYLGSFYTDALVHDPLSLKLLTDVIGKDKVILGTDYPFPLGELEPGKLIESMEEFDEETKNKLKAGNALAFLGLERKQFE

Take `N#Cc1c(-c2cccs2)nc(SCc2cccc(CC(=O)O)c2)[nH]c1=O` [compound 4, 2-[3-[(5-cyano-6-oxo-4-thiophen-2-yl-1H-pyrimidin-2-yl)sulfanylmethyl]phenyl]acetic acid]: the Ki (as a rule, a measure of affinity in units of concentration, obtained from inhibition or displacement) worked out at 0.85 ± 0.22 nM.
